Key:
[1] = target: T1, Proteinase-activated receptor 1 (Homo sapiens, UniProt P25116); experiment: Inhibitory concentration against potent thrombin receptor-1 (PAR-1) on human platelets; Inactive
T1 sequence (P25116 whole entry): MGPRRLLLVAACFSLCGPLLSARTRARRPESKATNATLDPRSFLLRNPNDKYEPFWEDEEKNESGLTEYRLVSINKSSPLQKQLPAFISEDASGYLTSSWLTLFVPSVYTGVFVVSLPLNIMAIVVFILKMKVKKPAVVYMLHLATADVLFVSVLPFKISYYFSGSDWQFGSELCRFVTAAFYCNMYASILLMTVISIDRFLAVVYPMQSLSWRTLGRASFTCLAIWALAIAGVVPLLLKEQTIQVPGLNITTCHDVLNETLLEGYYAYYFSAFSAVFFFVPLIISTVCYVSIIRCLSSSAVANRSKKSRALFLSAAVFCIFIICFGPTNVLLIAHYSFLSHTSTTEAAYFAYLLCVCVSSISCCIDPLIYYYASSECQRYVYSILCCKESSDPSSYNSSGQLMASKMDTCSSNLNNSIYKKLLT

Homo sapiens [2] = species on record: Homo sapiens; experiment: Inhibition of human platelet aggregation induced by thrombin; format: functional
[3] = target: T1, Proteinase-activated receptor 1; experiment: Inhibitory concentration against potent thrombin receptor-1 (PAR-1) on human platelets
Homo sapiens [4] = species on record: Homo sapiens; experiment: Inhibition of human platelet aggregation induced by high affinity thrombin receptor agonist peptide( ha-TRAP); format: functional

| SMILES | IC50 [1] | IC50 [3] [nM] | further results |
| --- | --- | --- | --- |
| Cc1ccc(C(=O)Cn2c(=O)n(Cc3ccccc3)c3ccccc32)cc1 | Not Active | – | – |
| O=C(Cn1c(=O)n(Cc2ccccc2)c2ccccc21)c1ccc(Br)cc1 | Not Active | – | – |
| O=C(Cn1c(=O)n(Cc2ccccc2)c2ccccc21)c1ccc(F)cc1 | Not Active | – | – |
| Cc1cc(C(=O)Cn2c(=O)n(Cc3ccccc3)c3ccccc32)ccc1Cl | Not Active | – | – |
| Cc1ccc(Cn2c(=N)n(CC(=O)c3cc(C(C)(C)C)c(O)c(C(C)(C)C)c3)c3ccccc32)cc1 | – | 33 | IC50 (Homo sapiens [2]): 1500 nM; IC50 (Homo sapiens [4]): 575 nM |
| CC(C)(C)c1ccc(Cn2c(=N)n(CC(=O)c3cc(C(C)(C)C)c(O)c(C(C)(C)C)c3)c3ccccc32)cc1 | – | 734 | – |
| COc1ccc(OC)c(C(=O)Cn2c(=O)n(Cc3ccccc3)c3ccccc32)c1 | Not Active | – | – |
| CC(C)(C)c1cc(C(=O)Cn2c(=N)n(CCN3CCOCC3)c3ccccc32)cc(C(C)(C)C)c1O | – | 98 | IC50 (Homo sapiens [2]): > 10000 nM; IC50 (Homo sapiens [4]): 2000 nM |
| Cc1ccc(C(=O)Cn2c(=O)n(Cc3ccccc3)c3ccccc32)c(C)c1 | Not Active | – | – |
| O=C(Cn1c(=O)n(Cc2ccccc2)c2ccccc21)c1ccc(Cl)cc1Cl | Not Active | – | – |
| CCC(=O)c1cc(C(C)(C)C)c(O)c(C(C)(C)C)c1 | Not Active | – | – |
| CC(C)(C)c1cc(C(=O)Cn2c(=N)n(CCN3CCCCC3)c3ccccc32)cc(C(C)(C)C)c1O | – | 2870 | – |
| N#Cc1ccc(C(=O)Cn2c(=O)n(Cc3ccccc3)c3ccccc32)cc1 | Not Active | – | – |
| O=C(Cn1c(=O)n(Cc2ccccc2)c2ccccc21)c1ccc(O)c(O)c1 | Not Active | – | – |

Continued, in another order:

| IC50 [1] | IC50 [3] [nM] | SMILES | further results |
| --- | --- | --- | --- |
| Not Active | – | Cn1c(=O)n(CC(=O)c2cc(C(C)(C)C)c(O)c(C(C)(C)C)c2)c2ccccc21 | – |
| – | 1500 | CC(C)(C)c1cc(C(=O)Cn2c(N)nc3ccccc32)cc(C(C)(C)C)c1O | – |
| – | 964 | CCCCCCCn1c(=N)n(CC(=O)c2cc(C(C)(C)C)c(O)c(C(C)(C)C)c2)c2ccccc21 | – |
| – | 1320 | CC(C)(C)c1cc(C(=O)Cn2c(=N)n(Cc3ccc(Cl)c(Cl)c3)c3ccccc32)cc(C(C)(C)C)c1O | – |
| – | 900 | Cn1c(=N)n(CC(=O)c2cc(C(C)(C)C)c(O)c(C(C)(C)C)c2)c2ccccc21 | – |
| – | 359 | CCCCn1c(=N)n(CC(=O)c2cc(C(C)(C)C)c(O)c(C(C)(C)C)c2)c2ccccc21 | IC50 (Homo sapiens [2]): 10000 nM; IC50 (Homo sapiens [4]): 825 nM |
| – | 65 | CC(C)(C)c1cc(C(=O)Cn2c(=N)n(Cc3ccccc3)c3ccccc32)cc(C(C)(C)C)c1O | IC50 (Homo sapiens [2]): 600 nM; IC50 (Homo sapiens [4]): 265 nM |
